ChEMBL document CHEMBL5154654, “Design, synthesis and biological evaluation of 7-((7H-pyrrolo[2,3-d]pyrimidin-4-yl)oxy)-2,3-dihydro-1H-inden-1-one derivatives as potent FAK inhibitors for the treatment of ovarian cancer” (Eur J Med Chem, 2022)
Converted amounts (≈) assume the structure as drawn. Blank lines part the entries; values can stand above or below the molecule they belong to. The source made the active and inactive calls. No cut-off for these calls is given here.

Tests used:
[1] = biological target: T1, Focal adhesion kinase 1 (Homo sapiens, UniProt Q05397); assay: Inhibition of FAK (unknown origin) using Fluorescein-Poly GAT as substrate incubated for 30 mins and measured after 60 mins by Lanthascreen assay
Target sequence in this assay (Q05397 whole entry): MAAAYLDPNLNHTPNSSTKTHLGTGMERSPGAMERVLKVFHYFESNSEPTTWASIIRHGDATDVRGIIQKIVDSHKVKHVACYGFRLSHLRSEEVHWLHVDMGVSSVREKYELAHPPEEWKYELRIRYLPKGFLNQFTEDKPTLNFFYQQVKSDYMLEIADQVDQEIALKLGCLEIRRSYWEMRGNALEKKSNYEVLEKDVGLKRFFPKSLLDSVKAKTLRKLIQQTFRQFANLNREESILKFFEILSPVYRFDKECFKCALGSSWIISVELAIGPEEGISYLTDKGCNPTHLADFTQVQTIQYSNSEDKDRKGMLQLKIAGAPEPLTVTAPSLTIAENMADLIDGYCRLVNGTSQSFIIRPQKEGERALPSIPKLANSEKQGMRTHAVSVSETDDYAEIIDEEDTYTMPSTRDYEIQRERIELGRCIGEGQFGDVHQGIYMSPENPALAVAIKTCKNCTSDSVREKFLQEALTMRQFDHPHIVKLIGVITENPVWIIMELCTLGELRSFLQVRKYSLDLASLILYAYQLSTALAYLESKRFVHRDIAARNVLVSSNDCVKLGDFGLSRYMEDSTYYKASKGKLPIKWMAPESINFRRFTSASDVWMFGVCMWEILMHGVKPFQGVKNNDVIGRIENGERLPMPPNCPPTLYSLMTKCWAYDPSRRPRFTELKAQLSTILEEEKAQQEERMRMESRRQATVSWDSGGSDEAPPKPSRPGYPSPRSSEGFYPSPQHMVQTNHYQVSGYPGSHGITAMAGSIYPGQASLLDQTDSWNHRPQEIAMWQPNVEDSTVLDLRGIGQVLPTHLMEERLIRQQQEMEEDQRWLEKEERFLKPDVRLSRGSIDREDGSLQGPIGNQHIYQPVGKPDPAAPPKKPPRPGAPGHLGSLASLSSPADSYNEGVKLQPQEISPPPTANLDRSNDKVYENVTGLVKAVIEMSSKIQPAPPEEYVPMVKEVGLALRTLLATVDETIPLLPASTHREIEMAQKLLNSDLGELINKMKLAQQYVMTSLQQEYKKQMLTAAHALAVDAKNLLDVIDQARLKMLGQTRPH

[2] = Metabolic stability in human liver microsomes assessed as half-life incubated for 120 mins in presence of NADPH by LC-MS/MS analysis; format: ADME, Microsome
[3] = Metabolic stability in human liver microsomes assessed as parent compound remaining incubated for 120 mins in presence of NADPH by LC-MS/MS analysis; format: ADME, Microsome; settings: read-out: Stability
[4] = Metabolic stability in human liver microsomes assessed as intrinsic clearance incubated for 120 mins in presence of NADPH by LC-MS/MS analysis; format: ADME, Microsome; settings: read-out: CLH
[5] = Toxicity in female BALB/c nude mouse xenografted with human PA-1 cells assessed as lung damage at 60 mg/kg, po administered once daily for 21 days; format: organism-based; settings: in vivo, 504 h, time 21 day
[6] = biological target: Tyrosine-protein kinase Fes/Fps (Homo sapiens) (UniProt P07332); assay: Inhibition of Fes (unknown origin) at 1 uM incubated for 40 mins in presence of Mg/ATP mix relative to control
[7] = Half-life in Sprague-Dawley rat at 20 mg/kg, po; format: ADME, organism-based; settings: in vivo
[8] = test system: PA-1; assay: Down-regulation of MMP-9 expression in human PA-1 cells at 2 uM measured after 0.5 to 6 hrs; format: functional, cell-based; settings: time 0.5-6 hrs
[9] = Toxicity in female BALB/c nude mouse xenografted with human PA-1 cells assessed as effect on body weight at 60 mg/kg, po administered once daily for 21 days; format: organism-based; settings: in vivo, 504 h, time 21 day
[10] = biological target: ALK tyrosine kinase receptor (Homo sapiens) (UniProt Q9UM73); assay: Inhibition of ALK (unknown origin) at 1 uM incubated for 40 mins in presence of Mg/ATP mix relative to control
Chain of ALK tyrosine kinase receptor (Homo sapiens) (Q9UM73 19-1620 limits assumed): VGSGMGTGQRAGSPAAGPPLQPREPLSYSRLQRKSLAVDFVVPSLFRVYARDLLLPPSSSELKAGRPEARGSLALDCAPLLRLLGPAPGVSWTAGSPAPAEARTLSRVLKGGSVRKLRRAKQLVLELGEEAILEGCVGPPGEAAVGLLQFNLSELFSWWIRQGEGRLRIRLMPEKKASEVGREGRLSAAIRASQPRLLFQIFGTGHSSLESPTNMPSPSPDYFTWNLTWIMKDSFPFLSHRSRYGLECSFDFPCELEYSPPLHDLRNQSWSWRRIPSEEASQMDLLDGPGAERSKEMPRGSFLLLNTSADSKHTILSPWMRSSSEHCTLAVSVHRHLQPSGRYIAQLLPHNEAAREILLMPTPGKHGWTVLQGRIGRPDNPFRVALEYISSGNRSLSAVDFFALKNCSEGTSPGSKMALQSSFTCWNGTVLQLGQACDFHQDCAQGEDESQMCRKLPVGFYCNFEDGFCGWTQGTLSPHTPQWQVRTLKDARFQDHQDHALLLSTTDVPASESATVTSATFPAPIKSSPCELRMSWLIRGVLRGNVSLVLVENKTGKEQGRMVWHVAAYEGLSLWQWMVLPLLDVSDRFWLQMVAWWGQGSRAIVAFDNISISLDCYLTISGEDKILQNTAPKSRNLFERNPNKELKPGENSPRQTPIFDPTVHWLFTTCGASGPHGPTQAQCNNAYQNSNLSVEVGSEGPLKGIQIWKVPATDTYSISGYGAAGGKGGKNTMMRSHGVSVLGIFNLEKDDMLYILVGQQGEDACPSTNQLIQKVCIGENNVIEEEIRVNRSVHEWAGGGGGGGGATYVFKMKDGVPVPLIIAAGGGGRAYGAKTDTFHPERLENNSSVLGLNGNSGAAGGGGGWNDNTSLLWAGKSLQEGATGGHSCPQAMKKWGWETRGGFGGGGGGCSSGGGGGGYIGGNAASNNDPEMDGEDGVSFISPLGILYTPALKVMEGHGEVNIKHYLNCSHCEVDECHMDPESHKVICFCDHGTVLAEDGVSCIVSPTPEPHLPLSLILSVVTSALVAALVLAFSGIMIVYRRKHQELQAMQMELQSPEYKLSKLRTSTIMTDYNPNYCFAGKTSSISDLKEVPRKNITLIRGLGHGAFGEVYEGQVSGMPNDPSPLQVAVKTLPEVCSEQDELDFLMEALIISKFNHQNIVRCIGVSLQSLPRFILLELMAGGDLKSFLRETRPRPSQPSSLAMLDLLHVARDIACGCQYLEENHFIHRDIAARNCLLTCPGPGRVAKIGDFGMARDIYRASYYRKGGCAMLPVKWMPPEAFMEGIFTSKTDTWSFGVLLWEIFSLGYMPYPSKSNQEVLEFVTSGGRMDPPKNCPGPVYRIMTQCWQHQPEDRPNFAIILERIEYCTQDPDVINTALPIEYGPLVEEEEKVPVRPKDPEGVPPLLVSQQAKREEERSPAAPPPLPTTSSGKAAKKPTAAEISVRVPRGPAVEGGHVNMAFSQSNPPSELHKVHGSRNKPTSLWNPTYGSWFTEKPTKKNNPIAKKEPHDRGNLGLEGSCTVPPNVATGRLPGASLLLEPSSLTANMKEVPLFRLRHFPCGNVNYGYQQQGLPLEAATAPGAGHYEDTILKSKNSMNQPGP

[11] = AUC (total) in Sprague-Dawley rat at 20 mg/kg, po; format: ADME, organism-based; design: dose 20 mg/kg, route po; settings: in vivo
[12] = Tmax in Sprague-Dawley rat at 20 mg/kg, po; format: ADME, organism-based; settings: in vivo
[13] = Aqueous solubility of compound; format: physicochemical; settings: aqueous (not further specified)
[14] = test system: ES-2; assay: Antimetastatic activity against human ES2 cells xenografted in mouse assessed as decrease in the number of peritoneal nodules at 60 mg/kg, po administered daily for 12 days; format: functional, organism-based; settings: time 12.0 day
[15] = test system: PA-1; assay: Inhibition of migration of human PA-1 cells at 2 uM measured after 24 hrs by Transwell assay; format: functional, cell-based
[16] = test system: PA-1; assay: Antitumor activity against human PA-1 cells xenografted in female BALB/c nude mouse assessed tumor growth inhibition at 60 mg/kg, po administered once daily for 21 days; format: functional; settings: PA-1, 504 h, time 21 day, read-out: TGI
[17] = Toxicity in female BALB/c nude mouse xenografted with human PA-1 cells assessed as spleen damage at 60 mg/kg, po administered once daily for 21 days; format: organism-based; settings: in vivo, 504 h, time 21 day
[18] = AUClast in Sprague-Dawley rat at 20 mg/kg, po; format: ADME, organism-based; design: time 0 - last, dose 20 mg/kg, route po; settings: in vivo
[19] = biological target: Serine/threonine-protein kinase 33 (Homo sapiens) (UniProt Q9BYT3); assay: Inhibition of STK33 (unknown origin) at 1 uM incubated for 40 mins in presence of Mg/ATP mix relative to control
[20] = biological target: T1, Focal adhesion kinase 1; settings: PA-1, dose 10.0 nM
Target sequence in this assay (Q05397 2-1052 limits assumed): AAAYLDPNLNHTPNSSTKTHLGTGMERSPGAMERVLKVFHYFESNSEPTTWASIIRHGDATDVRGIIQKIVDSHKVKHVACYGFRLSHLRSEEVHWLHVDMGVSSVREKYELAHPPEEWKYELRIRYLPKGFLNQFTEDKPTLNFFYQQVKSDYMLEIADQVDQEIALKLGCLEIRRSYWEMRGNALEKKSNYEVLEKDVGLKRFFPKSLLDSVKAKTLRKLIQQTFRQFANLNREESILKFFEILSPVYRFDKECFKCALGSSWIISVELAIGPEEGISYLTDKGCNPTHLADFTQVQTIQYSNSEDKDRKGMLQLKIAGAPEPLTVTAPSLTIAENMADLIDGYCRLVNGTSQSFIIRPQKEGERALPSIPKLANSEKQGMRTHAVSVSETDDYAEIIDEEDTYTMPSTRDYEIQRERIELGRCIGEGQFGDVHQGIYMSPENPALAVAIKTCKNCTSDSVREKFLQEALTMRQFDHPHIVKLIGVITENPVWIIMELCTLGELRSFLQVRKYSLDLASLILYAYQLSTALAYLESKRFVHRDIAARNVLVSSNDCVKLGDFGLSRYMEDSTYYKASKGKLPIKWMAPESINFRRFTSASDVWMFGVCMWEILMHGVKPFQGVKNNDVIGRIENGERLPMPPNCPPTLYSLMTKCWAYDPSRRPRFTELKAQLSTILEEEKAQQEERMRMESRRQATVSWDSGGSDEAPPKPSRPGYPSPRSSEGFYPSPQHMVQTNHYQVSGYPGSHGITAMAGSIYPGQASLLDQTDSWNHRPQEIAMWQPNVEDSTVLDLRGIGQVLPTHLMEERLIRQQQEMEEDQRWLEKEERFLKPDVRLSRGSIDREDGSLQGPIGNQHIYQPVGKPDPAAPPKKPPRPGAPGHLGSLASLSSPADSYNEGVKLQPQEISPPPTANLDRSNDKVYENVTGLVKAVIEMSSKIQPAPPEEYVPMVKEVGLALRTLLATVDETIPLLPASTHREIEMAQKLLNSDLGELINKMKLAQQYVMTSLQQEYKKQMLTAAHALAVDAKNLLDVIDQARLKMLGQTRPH
Description: Inhibition of FAK in human PA-1 cells assessed as suppression of FAK autophosphorylation at 10 nM and measured by Western blotting analysis

[21] = biological target: Dual specificity protein kinase CLK1 (Homo sapiens) (UniProt P49759); assay: Inhibition of CLK1 (unknown origin) at 1 uM incubated for 40 mins in presence of Mg/ATP mix relative to control
Chain of Dual specificity protein kinase CLK1 (Homo sapiens) (P49759 whole entry, looked up): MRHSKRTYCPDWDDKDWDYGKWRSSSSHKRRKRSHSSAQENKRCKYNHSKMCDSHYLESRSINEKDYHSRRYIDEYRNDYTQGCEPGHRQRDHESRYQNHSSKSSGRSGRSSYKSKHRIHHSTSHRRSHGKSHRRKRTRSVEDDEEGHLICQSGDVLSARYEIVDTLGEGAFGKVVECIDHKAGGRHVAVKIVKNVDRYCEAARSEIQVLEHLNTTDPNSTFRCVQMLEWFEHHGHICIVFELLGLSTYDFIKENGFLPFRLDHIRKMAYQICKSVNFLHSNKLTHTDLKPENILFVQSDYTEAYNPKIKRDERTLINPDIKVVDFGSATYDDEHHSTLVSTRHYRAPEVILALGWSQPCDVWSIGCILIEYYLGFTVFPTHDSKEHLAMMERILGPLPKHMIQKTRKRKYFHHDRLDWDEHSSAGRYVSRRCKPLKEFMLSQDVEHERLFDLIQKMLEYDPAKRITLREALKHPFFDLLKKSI

[22] = Cmax in Sprague-Dawley rat at 20 mg/kg, po; format: ADME, organism-based; design: dose 20 mg/kg, route po; settings: in vivo
[23] = test system: PA-1; assay: Down-regulation of MMP-2 expression in human PA-1 cells at 2 uM measured after 0.5 to 6 hrs; format: functional, cell-based; settings: time 0.5-6 hrs
[24] = Toxicity in female BALB/c nude mouse xenografted with human PA-1 cells assessed as heart damage at 60 mg/kg, po administered once daily for 21 days; format: organism-based; settings: in vivo, 504 h, time 21 day
[25] = Toxicity in female BALB/c nude mouse xenografted with human PA-1 cells assessed as kidney damage at 60 mg/kg, po administered once daily for 21 days; format: organism-based; settings: in vivo, 504 h, time 21 day
[26] = Toxicity in female BALB/c nude mouse xenografted with human PA-1 cells assessed as liver damage at 60 mg/kg, po administered once daily for 21 days; format: organism-based; settings: in vivo, 504 h, time 21 day
[27] = test system: PA-1; assay: Inhibition of invasion of human PA-1 cells at 2 uM measured after 24 hrs by Transwell assay; format: functional, cell-based
[28] = biological target: Leucine-rich repeat serine/threonine-protein kinase 2 (Homo sapiens) (UniProt Q5S007); assay: Inhibition of LRRK2 (unknown origin) at 1 uM incubated for 40 mins in presence of Mg/ATP mix relative to control
[29] = biological target: Dual specificity protein kinase CLK4 (Homo sapiens) (UniProt Q9HAZ1); assay: Inhibition of CLK4 (unknown origin) at 1 uM incubated for 40 mins in presence of Mg/ATP mix relative to control
Chain of Dual specificity protein kinase CLK4 (Homo sapiens) (Q9HAZ1 whole entry, looked up): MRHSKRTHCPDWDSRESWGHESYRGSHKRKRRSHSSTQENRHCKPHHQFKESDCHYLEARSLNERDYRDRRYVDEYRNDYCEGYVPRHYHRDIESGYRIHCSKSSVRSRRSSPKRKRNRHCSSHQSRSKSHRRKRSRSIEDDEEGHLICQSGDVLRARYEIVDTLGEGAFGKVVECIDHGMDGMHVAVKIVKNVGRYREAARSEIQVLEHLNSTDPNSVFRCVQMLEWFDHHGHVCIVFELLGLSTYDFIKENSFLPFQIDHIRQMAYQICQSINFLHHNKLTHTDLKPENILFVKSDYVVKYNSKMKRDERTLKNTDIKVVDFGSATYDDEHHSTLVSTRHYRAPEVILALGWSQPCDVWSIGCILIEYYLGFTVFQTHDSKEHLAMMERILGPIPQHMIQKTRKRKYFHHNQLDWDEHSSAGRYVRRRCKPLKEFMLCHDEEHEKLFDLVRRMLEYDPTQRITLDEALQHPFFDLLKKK

SMILES: COc1cc(N2CCN(C)CC2)ccc1Nc1nc(Oc2cccc3c2C(=O)CC3)c2ccsc2n1
- IC50 [1]: > 1000 nM

SMILES: COc1cc(N2CCN(C)CC2)ccc1Nc1nc(Oc2cccc3c2C(=O)CC3)c2ccccc2n1
- IC50 [1]: 231 nM

SMILES: COc1cc(N2CCN(C)CC2)ccc1Nc1nc(-c2cnn(C)c2)c2cc[nH]c2n1
- IC50 [1]: 330 nM

SMILES: COc1cc(N2CCN(C)CC2)ccc1Nc1nc(-n2cnc3ccccc32)c2cc[nH]c2n1
- IC50 [1]: 36.8 nM

SMILES: COc1cc(N2CCN(C)CC2)ccc1Nc1nc(Oc2cccc3c2C(=O)CC3)c2[nH]ccc2n1
- IC50 [1]: > 1000 nM

SMILES: COc1cc(N2CCOCC2)ccc1Nc1nc(Oc2cccc3c2C(=O)CC3)c2cc[nH]c2n1
- IC50 [1]: 1140 nM

SMILES: COc1cc(N2CCC(N3CCN(C)CC3)CC2)ccc1Nc1nc(-n2cnc3ccccc32)c2cc[nH]c2n1
- IC50 [1]: 27.6 nM

SMILES: COc1cc(N2CCC(N3CCN(C)CC3)CC2)ccc1Nc1nc(Oc2cccc3c2C(=O)CC3)c2ccccc2n1
- IC50 [1]: 246 nM

SMILES: O=C1CCc2cccc(Oc3nc(Nc4ccc(N5CCOCC5)cc4)nc4cc[nH]c34)c21
- IC50 [1]: > 1000 nM

SMILES: COc1cc(N2CCC(N3CCN(C)CC3)CC2)ccc1Nc1nc(-c2cnn(C)c2)c2cc[nH]c2n1
- IC50 [1]: 173 nM

SMILES: CN1CCN(c2ccc(Nc3nc(Oc4cccc5c4C(=O)CC5)c4[nH]ccc4n3)cc2)CC1
- IC50 [1]: > 1000 nM

SMILES: COc1cc(N2CCOCC2)ccc1Nc1nc(Oc2cccc3c2C(=O)CC3)c2ccsc2n1
- IC50 [1]: > 1000 nM

SMILES: COc1cc(N2CCOCC2)ccc1Nc1nc(Oc2cccc3c2C(=O)CC3)c2[nH]ccc2n1
- IC50 [1]: > 1000 nM

SMILES: O=C1CCc2cccc(Oc3nc(Nc4ccc(N5CCOCC5)cc4)nc4sccc34)c21
- IC50 [1]: > 1000 nM

Second part, led by results:

- IC50 [1]: 11.9 nM
SMILES: COc1cc(N2C[C@@H](C)O[C@@H](C)C2)ccc1Nc1nc(Oc2cccc3c2C(=O)CC3)c2cc[nH]c2n1

- IC50 [1]: 7.13 nM
SMILES: Cc1cc(N2CCN(C)CC2)ccc1Nc1nc(Oc2cccc3c2C(=O)CC3)c2cc[nH]c2n1

- IC50 [1]: 4.8 nM
- half-life [2]: 46.5 min
- remaining at 2 h [3]: 15.7%
- CLint scaled [4]: 18.7 mL/min/kg
SMILES: CN1CCN(c2ccc(Nc3nc(Oc4cccc5c4C(=O)CC5)c4cc[nH]c4n3)cc2Cl)CC1

- inhibition [6]: 96%
- half-life [7]: 245 min
- IC50 [1]: 1.89 nM
- inhibition [10]: 87%
- AUC [11]: 78.8 ng·h/mL
- Tmax [12]: 16.8 min
- solubility [13]: 456 µg/mL (≈ 890 µM)
- half-life [2]: 113 min
- AUC(0-t) [18]: 59.6 ng·h/mL
- inhibition [19]: 92%
- inhibition [20]: Active
- inhibition [21]: 92%
- Cmax [22]: 21.7 ng/mL
- remaining at 2 h [3]: 48.6%
- inhibition [28]: 100%
- CLint scaled [4]: 7.7 mL/min/kg
- inhibition [29]: 97%
SMILES: COc1cc(C(=O)NC2CCNCC2)ccc1Nc1nc(Oc2cccc3c2C(=O)CC3)c2cc[nH]c2n1
- Activity [5]: Non-Toxic
- Activity [8]: Active
- Activity [9]: Non-Toxic
- Activity [14]: Active
- inhibition [15]: Active
- inhibition in vivo at 60 mg/kg [16]: 72.5%
- Activity [17]: Non-Toxic
- Activity [23]: Active
- Activity [24]: Non-Toxic
- Activity [25]: Non-Toxic
- Activity [26]: Non-Toxic
- inhibition [27]: Active

- IC50 [1]: 20.6 nM
SMILES: O=C1NCc2cc(Nc3nc(Oc4cccc5c4C(=O)CC5)c4cc[nH]c4n3)ccc21

- IC50 [1]: 10.9 nM
SMILES: COc1cc(C(=O)NC2CC2)ccc1Nc1nc(Oc2cccc3c2C(=O)CC3)c2cc[nH]c2n1

- IC50 [1]: 6.32 nM
SMILES: Cc1cc(Nc2nc(Oc3cccc4c3C(=O)CC4)c3cc[nH]c3n2)ccc1N1CCN(C2COC2)CC1

- IC50 [1]: 9.6 nM
SMILES: COc1cc(N2C[C@@H]3C[C@H]2CO3)ccc1Nc1nc(Oc2cccc3c2C(=O)CC3)c2cc[nH]c2n1

- IC50 [1]: 3.93 nM
- solubility [13]: 9.3 µg/mL (≈ 20.3 µM)
- half-life [2]: 52 min
- remaining at 2 h [3]: 19.8%
- CLint scaled [4]: 16.7 mL/min/kg
SMILES: Cc1cc(Nc2nc(Oc3cccc4c3C(=O)CC4)c3cc[nH]c3n2)ccc1OCCN(C)C

- IC50 [1]: 27.4 nM
SMILES: COc1cc(N2CCC(N3CCN(C)CC3)CC2)ccc1Nc1nc(Oc2cccc3c2C(=O)CC3)c2sccc2n1
